ChEMBL document CHEMBL4385613, “Discovery of Conformational Control Inhibitors Switching off the Activated c-KIT and Targeting a Broad Range of Clinically Relevant c-KIT Mutants” (J Med Chem, 2019)
Calls of active or inactive are those of the source. No cut-off for these calls is given here.

Assays:
Mus musculus [1] = assay: Decrease in c-KIT phosphorylation in NOD-SCID mouse xenografted with human GIST430 cells harboring c-KIT exon 11 primary in-frame V560-L576 deletion mutant and exon 13 heterozygous secondary missense V654A mutant at 80 mg/kg, po measured after 8 hrs by immunoblotting analysis relative to control; type: functional
Mus musculus [2] = assay: Decrease in c-KIT phosphorylation in NOD-SCID mouse xenografted with human GIST430 cells harboring c-KIT exon 11 primary in-frame V560-L576 deletion mutant and exon 13 heterozygous secondary missense V654A mutant at 20 mg/kg, po measured after 8 hrs by immunoblotting analysis relative to control; type: functional
GIST430 [3] = assay: (§1) Antitumor activity against human GIST430 cells harboring c-KIT exon 11 primary in-frame V560-L576 deletion mutant and exon 13 heterozygous secondary missense V654A mutant xenografted in NOD-SCID mouse assessed as reduction in tumor size at 25, po administered for 2 weeks with 2 days rest after day 5 and measured thrice per week up to 14 days during compound dosing relative to control; type: functional; set-up: scale not given: the % may be the effect or the level left
GIST430 [4] = assay: as §1, with “as” for “as reduction in”, “growth inhibition” for “size”, “25 mg/kg,” for “25,”, “21” for “14”, “dosing” for “dosing relative to control”; type: functional, organism-based
[5] = test system: Mast/stem cell growth factor receptor Kit (Homo sapiens), P10721 [V654A]; assay: Inhibition of human c-KIT ATP binding domain exon 13 V654A single mutant at 100 nM using poly (Glu,Tyr) 4:1 as substrate in presence of 33P-gamma-ATP by hotspot kinase assay relative to control
[6] = test system: Mast/stem cell growth factor receptor Kit (Homo sapiens), P10721 [V560G]; assay: Inhibition of human c-KIT JM domain exon 11 V560G single mutant at 100 nM using poly (Glu,Tyr) 4:1 as substrate in presence of 33P-gamma-ATP by hotspot kinase assay relative to control
[7] = test system: Mast/stem cell growth factor receptor Kit (Homo sapiens), P10721 [V560G]; assay: Inhibition of human c-KIT JM domain exon 11 V560G single mutant at 10 nM using poly (Glu,Tyr) 4:1 as substrate in presence of 33P-gamma-ATP by hotspot kinase assay relative to control
[8] = test system: Mast/stem cell growth factor receptor Kit (Homo sapiens), P10721 [K642E]; assay: Inhibition of human c-KIT ATP binding domain exon 13 K642E single mutant at 100 nM using poly (Glu,Tyr) 4:1 as substrate in presence of 33P-gamma-ATP by hotspot kinase assay relative to control
[9] = test system: Mast/stem cell growth factor receptor Kit (Homo sapiens), P10721 [T670I]; assay: Inhibition of human c-KIT ATP binding domain exon 14 T670I single mutant at 10 nM using poly (Glu,Tyr) 4:1 as substrate in presence of 33P-gamma-ATP by hotspot kinase assay relative to control
[10] = biological target: Mast/stem cell growth factor receptor Kit (Homo sapiens, UniProt P10721, D816H); assay: Inhibition of human c-KIT A loop exon 17 D816H single mutant using poly (Glu,Tyr) 4:1 as substrate in presence of 33P-gamma-ATP by hotspot kinase assay
[11] = biological target: Mast/stem cell growth factor receptor Kit (Homo sapiens, UniProt P10721, D816V); assay: Inhibition of human c-KIT A loop exon 17 D816V single mutant using poly (Glu,Tyr) 4:1 as substrate in presence of 33P-gamma-ATP by hotspot kinase assay
[12] = biological target: Mast/stem cell growth factor receptor Kit (Homo sapiens, UniProt P10721, D820E); assay: Inhibition of human c-KIT A loop exon 17 D820E single mutant using poly (Glu,Tyr) 4:1 as substrate in presence of 33P-gamma-ATP by hotspot kinase assay
[13] = biological target: Mast/stem cell growth factor receptor Kit (Homo sapiens, UniProt P10721, Y823D); assay: Inhibition of human c-KIT A loop exon 17 Y823D single mutant using poly (Glu,Tyr) 4:1 as substrate in presence of 33P-gamma-ATP by hotspot kinase assay
[14] = biological target: Mast/stem cell growth factor receptor Kit (Homo sapiens, UniProt P10721, A829P); assay: Inhibition of human c-KIT A loop exon 18 A829P single mutant using poly (Glu,Tyr) 4:1 as substrate in presence of 33P-gamma-ATP by hotspot kinase assay
[15] = test system: Mast/stem cell growth factor receptor Kit (Homo sapiens), P10721 [V559D,V654A]; assay: Inhibition of human c-KIT […] V559D/V654A double mutant at 100 nM using poly (Glu,Tyr) 4:1 as substrate in presence of 33P-gamma-ATP by hotspot kinase assay relative to control
[16] = test system: Mast/stem cell growth factor receptor Kit (Homo sapiens), P10721 [V559D,V654A]; assay: Inhibition of human c-KIT […] V559D/V654A double mutant at 10 nM using poly (Glu,Tyr) 4:1 as substrate in presence of 33P-gamma-ATP by hotspot kinase assay relative to control
[17] = test system: Mast/stem cell growth factor receptor Kit (Homo sapiens), P10721 [V560G,N822K]; assay: Inhibition of human c-KIT A loop exon 11/17 V560G/N822K double mutant at 100 nM using poly (Glu,Tyr) 4:1 as substrate in presence of 33P-gamma-ATP by hotspot kinase assay relative to control
[18] = test system: Mast/stem cell growth factor receptor Kit (Homo sapiens), P10721 [V560G,N822K]; assay: Inhibition of human c-KIT A loop exon 11/17 V560G/N822K double mutant at 10 nM using poly (Glu,Tyr) 4:1 as substrate in presence of 33P-gamma-ATP by hotspot kinase assay relative to control
GIST48 = assay: Antiproliferative activity against human GIST48 cells harboring c-KIT exon 11 homozygous primary missense V560D mutant and exon 17 heterozygous secondary D820A mutant assessed as reduction in cell viability by MTS assay; type: functional
[19] = Antiproliferative activity against human GIST48B cells assessed as reduction in cell viability by methylene blue staining based assay; type: functional
PC-3 = assay: Antiproliferative activity against human PC3 assessed as reduction in cell viability after 72 hrs by MTS assay; type: functional; conditions: PC-3, 72 h
[20] = Volume of distribution at steady state in ICR mouse at 2 mg/kg, iv administered as single dose measured up to 24 hrs by LC-MS/MS analysis; type: ADME, organism-based; conditions: in vivo, read-out: Vdss
[21] = Half life in ICR mouse at 10 mg/kg, po administered as single dose measured up to 24 hrs by LC-MS/MS analysis; type: ADME, organism-based; conditions: in vivo
[22] = test system: Mast/stem cell growth factor receptor Kit (Homo sapiens), P10721 [D816H]; conditions: at 10 nM
Description: Inhibition of human c-KIT A loop exon 17 D816H single mutant at 10 nM using poly (Glu,Tyr) 4:1 as substrate in presence of 33P-gamma-ATP by hotspot kinase assay relative to control

[23] = test system: Mast/stem cell growth factor receptor Kit (Homo sapiens), P10721 [D816V]; conditions: at 10 nM
Description: Inhibition of human c-KIT A loop exon 17 D816V single mutant at 10 nM using poly (Glu,Tyr) 4:1 as substrate in presence of 33P-gamma-ATP by hotspot kinase assay relative to control

[24] = test system: Mast/stem cell growth factor receptor Kit (Homo sapiens), P10721 [D820E]; conditions: at 10 nM
Description: Inhibition of human c-KIT A loop exon 17 D820E single mutant at 10 nM using poly (Glu,Tyr) 4:1 as substrate in presence of 33P-gamma-ATP by hotspot kinase assay relative to control

[25] = test system: Mast/stem cell growth factor receptor Kit (Homo sapiens), P10721 [D820Y]; conditions: at 100 nM
Description: Inhibition of human c-KIT A loop exon 17 D820Y single mutant at 100 nM using poly (Glu,Tyr) 4:1 as substrate in presence of 33P-gamma-ATP by hotspot kinase assay relative to control

[26] = test system: Mast/stem cell growth factor receptor Kit (Homo sapiens), P10721 [Y823D]; conditions: at 10 nM
Mast/stem cell growth factor receptor Kit (Homo sapiens), P10721 [Y823D], sequence (P10721 whole entry Y823D): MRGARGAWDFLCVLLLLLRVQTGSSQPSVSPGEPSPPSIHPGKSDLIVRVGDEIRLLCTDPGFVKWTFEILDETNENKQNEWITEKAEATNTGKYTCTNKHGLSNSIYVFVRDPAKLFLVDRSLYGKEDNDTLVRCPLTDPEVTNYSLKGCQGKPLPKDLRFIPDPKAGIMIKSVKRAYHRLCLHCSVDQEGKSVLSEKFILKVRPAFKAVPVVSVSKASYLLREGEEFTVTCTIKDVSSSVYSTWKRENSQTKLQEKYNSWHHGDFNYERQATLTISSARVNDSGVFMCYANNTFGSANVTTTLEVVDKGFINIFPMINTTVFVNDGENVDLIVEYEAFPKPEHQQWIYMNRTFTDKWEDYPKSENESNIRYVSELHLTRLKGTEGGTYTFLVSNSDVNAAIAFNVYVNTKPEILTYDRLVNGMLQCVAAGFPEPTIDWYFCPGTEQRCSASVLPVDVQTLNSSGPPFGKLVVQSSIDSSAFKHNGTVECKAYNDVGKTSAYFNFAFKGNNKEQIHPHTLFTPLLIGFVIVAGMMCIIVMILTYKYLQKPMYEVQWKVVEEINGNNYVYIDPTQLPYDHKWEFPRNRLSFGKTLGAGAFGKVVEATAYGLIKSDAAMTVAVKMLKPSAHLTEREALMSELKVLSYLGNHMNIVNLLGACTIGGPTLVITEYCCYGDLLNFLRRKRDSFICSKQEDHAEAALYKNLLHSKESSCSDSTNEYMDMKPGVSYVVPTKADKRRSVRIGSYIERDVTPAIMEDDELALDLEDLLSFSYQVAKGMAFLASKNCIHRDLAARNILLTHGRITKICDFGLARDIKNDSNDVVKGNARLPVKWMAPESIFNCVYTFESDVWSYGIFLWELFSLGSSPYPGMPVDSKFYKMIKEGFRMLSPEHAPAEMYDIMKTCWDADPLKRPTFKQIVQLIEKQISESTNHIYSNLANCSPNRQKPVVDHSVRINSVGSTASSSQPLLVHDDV
Description: Inhibition of human c-KIT A loop exon 17 Y823D single mutant at 10 nM using poly (Glu,Tyr) 4:1 as substrate in presence of 33P-gamma-ATP by hotspot kinase assay relative to control

Mast/stem cell growth factor receptor Kit (Homo sapiens), P10721 [V560G,N822K], sequence (P10721 whole entry V560G/N822K): as the sequence (P10721 whole entry Y823D) above, with V560G, N822K, D823Y counted along it
Mast/stem cell growth factor receptor Kit (Homo sapiens), P10721 [V560G], sequence (P10721 whole entry V560G, the tested form may be a part): as the sequence (P10721 whole entry Y823D) above, with V560G, D823Y counted along it
Mast/stem cell growth factor receptor Kit (Homo sapiens), P10721 [V559D,V654A], sequence (P10721 whole entry V559D/V654A): as the sequence (P10721 whole entry Y823D) above, with V559D, V654A, D823Y counted along it
Mast/stem cell growth factor receptor Kit (Homo sapiens, UniProt P10721, Y823D), sequence (P10721 26-976 Y823D limits assumed): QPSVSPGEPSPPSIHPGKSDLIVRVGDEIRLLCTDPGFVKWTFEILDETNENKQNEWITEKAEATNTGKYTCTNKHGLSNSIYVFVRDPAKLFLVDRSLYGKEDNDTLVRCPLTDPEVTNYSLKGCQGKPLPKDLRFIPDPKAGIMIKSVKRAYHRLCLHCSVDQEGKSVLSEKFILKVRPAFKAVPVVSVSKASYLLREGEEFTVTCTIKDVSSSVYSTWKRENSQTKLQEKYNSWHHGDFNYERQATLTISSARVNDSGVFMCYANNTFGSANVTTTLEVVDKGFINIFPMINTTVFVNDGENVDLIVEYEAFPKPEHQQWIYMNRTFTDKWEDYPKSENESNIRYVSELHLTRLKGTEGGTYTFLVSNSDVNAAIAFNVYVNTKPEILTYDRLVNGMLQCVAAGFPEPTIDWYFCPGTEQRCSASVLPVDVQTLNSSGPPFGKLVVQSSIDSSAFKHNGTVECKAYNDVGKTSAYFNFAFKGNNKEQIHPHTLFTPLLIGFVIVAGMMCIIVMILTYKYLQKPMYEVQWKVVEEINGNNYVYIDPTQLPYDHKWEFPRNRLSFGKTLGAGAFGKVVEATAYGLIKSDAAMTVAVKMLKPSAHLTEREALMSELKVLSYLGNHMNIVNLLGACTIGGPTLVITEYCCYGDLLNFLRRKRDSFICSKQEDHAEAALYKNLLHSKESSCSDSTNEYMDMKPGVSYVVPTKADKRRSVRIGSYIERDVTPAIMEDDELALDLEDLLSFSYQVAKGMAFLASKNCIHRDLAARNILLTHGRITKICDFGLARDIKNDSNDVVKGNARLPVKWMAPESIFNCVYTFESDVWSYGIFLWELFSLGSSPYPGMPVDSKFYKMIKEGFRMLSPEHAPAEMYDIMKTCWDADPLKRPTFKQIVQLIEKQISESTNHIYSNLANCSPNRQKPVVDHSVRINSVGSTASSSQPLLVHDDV
Mast/stem cell growth factor receptor Kit (Homo sapiens, UniProt P10721, D820E), sequence (P10721 26-976 D820E limits assumed): as the sequence (P10721 26-976 Y823D limits assumed) above, with D795E, D798Y counted along it
Mast/stem cell growth factor receptor Kit (Homo sapiens), P10721 [D820E], sequence (P10721 whole entry D820E): as the sequence (P10721 whole entry Y823D) above, with D820E, D823Y counted along it
Mast/stem cell growth factor receptor Kit (Homo sapiens), P10721 [D820Y], sequence (P10721 whole entry D820Y): as the sequence (P10721 whole entry Y823D) above, with D820Y, D823Y counted along it
Mast/stem cell growth factor receptor Kit (Homo sapiens), P10721 [D816V], sequence (P10721 whole entry D816V): as the sequence (P10721 whole entry Y823D) above, with D816V, D823Y counted along it
Mast/stem cell growth factor receptor Kit (Homo sapiens, UniProt P10721, A829P), sequence (P10721 26-976 A829P limits assumed): as the sequence (P10721 26-976 Y823D limits assumed) above, with D798Y, A804P counted along it
Mast/stem cell growth factor receptor Kit (Homo sapiens), P10721 [T670I], sequence (P10721 whole entry T670I, the tested form may be a part): as the sequence (P10721 whole entry Y823D) above, with T670I, D823Y counted along it
Mast/stem cell growth factor receptor Kit (Homo sapiens), P10721 [K642E], sequence (P10721 whole entry K642E, the tested form may be a part): as the sequence (P10721 whole entry Y823D) above, with K642E, D823Y counted along it
Mast/stem cell growth factor receptor Kit (Homo sapiens, UniProt P10721, D816V), sequence (P10721 26-976 D816V limits assumed): as the sequence (P10721 26-976 Y823D limits assumed) above, with D791V, D798Y counted along it
Mast/stem cell growth factor receptor Kit (Homo sapiens), P10721 [D816H], sequence (P10721 whole entry D816H): as the sequence (P10721 whole entry Y823D) above, with D816H, D823Y counted along it
Mast/stem cell growth factor receptor Kit (Homo sapiens), P10721 [V654A], sequence (P10721 whole entry V654A, the tested form may be a part): as the sequence (P10721 whole entry Y823D) above, with V654A, D823Y counted along it
Mast/stem cell growth factor receptor Kit (Homo sapiens, UniProt P10721, D816H), sequence (P10721 26-976 D816H limits assumed): as the sequence (P10721 26-976 Y823D limits assumed) above, with D791H, D798Y counted along it

What does the source list for CCc1cc(NC(=O)Nc2ccc(-c3cnc(Nc4cc(N5CCN(CC)CC5)ncn4)s3)cc2)no1?
inhibition in vivo at 80 mg/kg (Mus musculus [1]): 95.9%; inhibition in vivo at 20 mg/kg (Mus musculus [2]): 85%; Activity (GIST430 [3]): 59%; TGI (GIST430 [4]): Active; inhibition [5]: 75%; inhibition [6]: 99%; inhibition [7]: 95%; inhibition [8]: 99%; inhibition [9]: 55%; IC50 [10]: 0.67 nM; IC50 [11]: 8.56 nM; IC50 [12]: 0.81 nM; IC50 [13]: 0.12 nM; IC50 [14]: 0.89 nM; inhibition [15]: 43%; inhibition [16]: 10%; inhibition [17]: 99%; inhibition [18]: 94%; GI50 (GIST48): 2 nM; GI50 [19]: > 100 nM; GI50 (PC-3): > 20000 nM; Vd [20]: 7.1 L/kg; half-life [21]: 2.8 h; inhibition [22]: 73%; inhibition [23]: 37%; inhibition [24]: 83%; inhibition [25]: 100%; inhibition [26]: 97%
